In patent publication US9938261B2, “Heterocyclic compounds and methods of use thereof” (AMBIT BIOSCIENCES CORPORATION, priority 2011, dated 2018):
Where a name gives a salt, the structure may show the parent alone. Read-outs that look alike come from different tables or passages of the source.

How the values were obtained:
[1] = target: T1, FLT3 (Homo sapiens, UniProt P36888); assay: Competition binding assay, FLT3 Kd
T1 construct: made in house
T1 sequence (P36888 27-993): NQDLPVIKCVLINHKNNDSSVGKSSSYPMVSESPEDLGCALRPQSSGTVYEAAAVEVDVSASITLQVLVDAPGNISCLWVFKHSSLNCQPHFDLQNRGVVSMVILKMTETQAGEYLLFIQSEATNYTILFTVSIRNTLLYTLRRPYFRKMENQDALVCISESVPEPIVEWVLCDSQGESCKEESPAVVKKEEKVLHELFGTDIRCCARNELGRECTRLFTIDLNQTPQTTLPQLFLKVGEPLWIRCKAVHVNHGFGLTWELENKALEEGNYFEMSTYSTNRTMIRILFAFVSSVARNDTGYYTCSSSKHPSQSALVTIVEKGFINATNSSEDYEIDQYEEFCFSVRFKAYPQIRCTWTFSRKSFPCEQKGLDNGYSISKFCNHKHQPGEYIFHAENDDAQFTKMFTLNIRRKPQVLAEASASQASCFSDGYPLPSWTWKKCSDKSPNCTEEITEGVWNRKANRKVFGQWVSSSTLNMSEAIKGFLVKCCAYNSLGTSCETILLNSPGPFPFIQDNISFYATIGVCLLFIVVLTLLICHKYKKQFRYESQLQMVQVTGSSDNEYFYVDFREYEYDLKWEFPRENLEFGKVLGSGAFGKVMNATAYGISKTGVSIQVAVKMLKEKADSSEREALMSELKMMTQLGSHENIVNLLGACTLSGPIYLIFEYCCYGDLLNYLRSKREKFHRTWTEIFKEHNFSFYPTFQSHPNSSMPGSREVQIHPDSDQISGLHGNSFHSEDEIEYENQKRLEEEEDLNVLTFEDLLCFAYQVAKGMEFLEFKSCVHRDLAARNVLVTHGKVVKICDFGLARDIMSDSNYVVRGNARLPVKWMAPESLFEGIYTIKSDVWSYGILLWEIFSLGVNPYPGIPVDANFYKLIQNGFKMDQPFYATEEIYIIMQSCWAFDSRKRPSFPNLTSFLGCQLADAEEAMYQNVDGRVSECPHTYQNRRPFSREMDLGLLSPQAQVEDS
Procedure, shortened: (§1)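 Kinases, either T7 phage fusions or HEK-293-expressed and DNA-tagged, competed with test compounds for immobilized biotinylated affinity ligand on streptavidin beads in binding buffer (20% SeaBlock, 0.17×PBS, 0.05% Tween 20, 6 mM DTT). After 1 hour at room temperature, bead-bound kinase was eluted and quantified by qPCR; Kd from eleven-point threefold dilutions.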

[2] = target: T2, PDGFRβ (Homo sapiens, UniProt P09619); assay: Competition binding assay, PDGFRβ Kd
T2 construct: made in house
Procedure, shortened: as §1

[3] = target: T3, KIT (Homo sapiens, UniProt P10721); assay: Competition binding assay, KIT Kd
T3 construct: made in house
Procedure, shortened: as §1

[4] = target: CSF1R (Homo sapiens, UniProt P07333); assay: Competition binding assay, CSF1R Kd; set-up: made in house
Procedure, shortened: as §1

[5] = system: M-NFS-60 cells; assay: M-NFS-60 cell proliferation assay (Alamar Blue); format: cell-based, mouse; details: read-out: CSF1R M-NFS-60 CTB:IC50
Procedure, shortened: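 Alamar Blue reduction (3 h; 560/590 nm) measured viability after 72 h, 37 °C treatment with nine half-log compound concentrations at 0.5% DMSO. Cells: M-CSF-dependent (20 ng/mL) murine M-NFS-60 in RPMI plus 10% FBS. IC50s, averaged from duplicates, reflect half-maximal inhibition of proliferation relative to control.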

[6] = target: kinase panel containing either 386 or 392 distinct kinases; assay: Kinase selectivity score S10 from competition binding panel
Description: Competition binding assays used herein were developed, validated and performed as described in Fabian et al., Nature Biotechnology 2005, 23, 329-336. Kinases were produced as fusions to T7 phage (See, Fabian et al. or WO04/015142) or alternatively, the kinases were expressed in HEK-293 cells and subsequently tagged with DNA for PCR detection (See, WO08/005310). For the binding assays, streptavidin-coated magnetic beads were treated with biotinylated affinity ligands for 30 min at room temperature to generate affinity resins. The liganded beads were blocked with excess biotin and washed with blocking buffer (SeaBlock (Pierce), 1% BSA, 0.05% Tween 20, 1 mM DTT) to remove unbound ligand and to reduce non-specific binding. Binding reactions were assembled by combining kinase, liganded affinity beads, and test compounds in 1× binding buffer (20% SeaBlock, 0.17×PBS, 0.05% Tween 20, 6 mM DTT). Test compounds were prepared as 100× stocks in DMSO and diluted into the aqueous environment. Kds were determined using an eleven point threefold serial dilutions. DMSO or control compounds were was added to control assays lacking a test compound. Primary screen assays were performed in polypropylene 384-well plates in a final volume of 20-40 μL, while Kd determinations were performed in polystyrene 96-well plates in a final volume of 135 μL. The assay plates were incubated at room temperature with shaking for 1 hour to allow the binding reactions to reach equilibrium, and the affinity beads were washed extensively with wash buffer (1×PBS, 0.05% Tween 20) to remove unbound protein. The beads were then resuspended in elution buffer (1×PBS, 0.05% Tween […] non-biotinylated affinity ligand) and incubated at room temperature with shaking for 30 min. The kinase concentration in the eluates was measured by quantitative PCR.
A selectivity score (S10) is a quantitative measure of selectivity of a compound against a panel of kinases. An S10 was calculated for a compound by dividing the number of kinases found to have a percent of control (DMSO) less than 10 by the total number of distinct kinases tested (excluding mutant variants). Percent of control (POC) is calculated by subtracting the signal of the control compound (POC=0) from the signal of the test compound and dividing the outcome by the signal of DMSO (POC=100) minus the signal of the control compound. For the compounds disclosed herein, S10 scores were obtained by testing the compounds at 10 μM concentration in a kinase panel containing either 386 or 392 distinct kinases.

[7] = Mus musculus, 72 hours incubation, M-CSF 20 ng/mL
[8] = compounds at 10 μM, 386 or 392 distinct kinases
[9] = Mus musculus, M-NFS-60 cell proliferation
[10] = 10 μM, panel of 386 or 392 distinct kinases

T3 sequence (P10721 26-976): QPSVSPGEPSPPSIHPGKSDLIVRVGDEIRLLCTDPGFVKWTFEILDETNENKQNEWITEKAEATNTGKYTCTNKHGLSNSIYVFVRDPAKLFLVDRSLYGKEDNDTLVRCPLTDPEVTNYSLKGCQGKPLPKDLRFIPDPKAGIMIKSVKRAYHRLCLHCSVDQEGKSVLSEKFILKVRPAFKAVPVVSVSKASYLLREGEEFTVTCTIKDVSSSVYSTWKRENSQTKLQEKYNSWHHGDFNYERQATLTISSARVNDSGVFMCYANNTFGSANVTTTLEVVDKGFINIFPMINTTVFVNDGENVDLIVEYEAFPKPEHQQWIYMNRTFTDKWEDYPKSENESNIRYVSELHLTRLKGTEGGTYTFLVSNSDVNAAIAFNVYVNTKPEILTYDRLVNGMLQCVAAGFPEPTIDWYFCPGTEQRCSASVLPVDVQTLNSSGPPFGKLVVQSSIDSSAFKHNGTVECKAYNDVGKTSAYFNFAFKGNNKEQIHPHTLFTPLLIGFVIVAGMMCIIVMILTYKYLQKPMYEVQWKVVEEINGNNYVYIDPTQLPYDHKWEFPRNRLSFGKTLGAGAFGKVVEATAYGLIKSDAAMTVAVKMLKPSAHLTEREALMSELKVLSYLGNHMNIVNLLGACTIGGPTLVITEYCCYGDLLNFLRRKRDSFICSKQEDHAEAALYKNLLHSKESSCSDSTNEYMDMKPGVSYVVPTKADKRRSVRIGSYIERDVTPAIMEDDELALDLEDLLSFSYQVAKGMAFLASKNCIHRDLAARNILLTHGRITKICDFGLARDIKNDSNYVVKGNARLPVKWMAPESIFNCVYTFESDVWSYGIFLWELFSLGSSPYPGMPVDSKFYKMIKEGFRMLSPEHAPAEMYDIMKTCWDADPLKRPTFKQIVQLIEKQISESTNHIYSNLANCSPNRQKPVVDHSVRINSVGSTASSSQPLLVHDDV
T2 sequence (P09619 33-1106): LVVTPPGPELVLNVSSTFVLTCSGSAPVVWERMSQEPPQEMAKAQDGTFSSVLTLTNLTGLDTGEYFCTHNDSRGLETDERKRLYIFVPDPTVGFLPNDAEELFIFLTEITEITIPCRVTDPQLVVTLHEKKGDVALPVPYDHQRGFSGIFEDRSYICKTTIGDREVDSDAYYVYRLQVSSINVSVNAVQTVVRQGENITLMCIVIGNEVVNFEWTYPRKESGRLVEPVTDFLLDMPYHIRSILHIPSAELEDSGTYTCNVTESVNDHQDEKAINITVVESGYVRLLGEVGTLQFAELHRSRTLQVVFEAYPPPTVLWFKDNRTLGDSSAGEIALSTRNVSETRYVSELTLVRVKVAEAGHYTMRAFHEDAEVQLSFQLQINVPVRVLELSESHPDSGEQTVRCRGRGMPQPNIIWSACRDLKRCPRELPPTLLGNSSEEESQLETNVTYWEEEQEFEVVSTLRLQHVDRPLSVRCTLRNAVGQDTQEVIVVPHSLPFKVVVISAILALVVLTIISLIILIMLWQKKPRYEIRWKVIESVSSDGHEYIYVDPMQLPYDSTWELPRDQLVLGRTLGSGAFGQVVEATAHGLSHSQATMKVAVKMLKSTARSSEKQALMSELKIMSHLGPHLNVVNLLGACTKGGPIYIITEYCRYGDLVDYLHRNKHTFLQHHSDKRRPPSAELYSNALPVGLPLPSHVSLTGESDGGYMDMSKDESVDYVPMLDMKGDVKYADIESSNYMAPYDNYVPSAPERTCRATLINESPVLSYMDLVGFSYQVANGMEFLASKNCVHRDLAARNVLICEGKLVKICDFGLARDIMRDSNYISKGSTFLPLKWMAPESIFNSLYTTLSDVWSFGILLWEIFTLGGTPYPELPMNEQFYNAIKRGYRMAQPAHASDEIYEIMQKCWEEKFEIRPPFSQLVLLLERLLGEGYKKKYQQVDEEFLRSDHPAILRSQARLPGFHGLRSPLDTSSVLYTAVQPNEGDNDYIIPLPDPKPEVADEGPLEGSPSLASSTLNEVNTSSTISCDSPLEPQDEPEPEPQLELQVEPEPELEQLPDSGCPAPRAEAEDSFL
CSF1R, sequence (P07333 20-972): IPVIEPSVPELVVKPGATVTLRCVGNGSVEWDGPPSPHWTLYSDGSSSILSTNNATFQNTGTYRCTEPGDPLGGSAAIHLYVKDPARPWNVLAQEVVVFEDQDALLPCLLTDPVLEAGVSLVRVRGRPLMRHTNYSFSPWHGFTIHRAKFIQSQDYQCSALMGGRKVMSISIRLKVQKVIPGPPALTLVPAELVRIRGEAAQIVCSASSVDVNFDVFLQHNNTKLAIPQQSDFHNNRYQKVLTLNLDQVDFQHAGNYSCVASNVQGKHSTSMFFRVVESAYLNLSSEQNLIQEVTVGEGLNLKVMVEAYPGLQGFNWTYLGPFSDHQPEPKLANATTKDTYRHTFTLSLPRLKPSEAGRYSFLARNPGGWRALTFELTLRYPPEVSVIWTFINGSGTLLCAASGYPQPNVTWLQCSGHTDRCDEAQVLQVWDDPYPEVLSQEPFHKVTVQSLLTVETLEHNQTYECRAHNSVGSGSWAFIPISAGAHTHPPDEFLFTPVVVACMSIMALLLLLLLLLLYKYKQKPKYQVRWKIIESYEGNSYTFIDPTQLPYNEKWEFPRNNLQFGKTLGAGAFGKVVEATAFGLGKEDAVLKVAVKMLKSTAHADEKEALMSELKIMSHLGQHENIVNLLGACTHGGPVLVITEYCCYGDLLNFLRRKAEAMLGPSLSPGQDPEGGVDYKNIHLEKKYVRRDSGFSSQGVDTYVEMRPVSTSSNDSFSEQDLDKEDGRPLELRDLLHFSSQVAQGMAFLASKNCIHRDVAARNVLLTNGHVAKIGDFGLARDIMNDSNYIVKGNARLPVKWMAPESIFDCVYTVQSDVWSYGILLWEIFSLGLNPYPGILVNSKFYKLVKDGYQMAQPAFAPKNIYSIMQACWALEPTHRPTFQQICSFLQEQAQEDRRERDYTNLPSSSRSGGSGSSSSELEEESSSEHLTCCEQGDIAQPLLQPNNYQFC

Compound	Kd [1]	Kd [2]	Kd [3]	Kd [4]	Kinase specificity S(10) [6, 8]	Kd ([1]; competition binding)	Kd ([2]; competition binding)	Kd ([3]; competition binding)	Kd ([4]; competition binding)	Kinase specificity S(10) [6, 10]	IC50 [5, 7]	IC50 [5, 9]	IC50 ([5]; 72 hours incubation, M-CSF 20 ng/mL)
Cn1cc(-c2cn(Cc3ccc4nc(N[C@@H]5CCCC[C@H]5O)oc4c3)cn2)cn1 [Example 77, (1R,2R)-2-((6-((4-(1-methyl-1H-pyrazol-4-yl)-1H-imidazol-1-yl)methyl)benzo[d]oxazol-2-yl)amino)cyclohexanol]	1 to 5 µM	0.5 to 2 µM	0.5 to 2 µM	0.005 to 0.02 µM	A (A≤0.01)	–	–	–	–	–	0.4 to 1.5 µM	–	–
Cn1cc(-c2cn(Cc3ccc4nc(N[C@@H]5CCCC[C@H]5O)sc4c3)cn2)cn1 [Example 36, (1R,2R)-2-((6-((4-(1-methyl-1H-pyrazol-4-yl)-1H-imidazol-1-yl)methyl)benzo[d]thiazol-2-yl)amino)cyclohexanol]	> 5 µM	> 2 µM	0.5 to 2 µM	0.005 to 0.02 µM	A (A≤0.01)	–	–	–	–	–	0.05 to 0.4 µM	–	–
OC1(CNc2nc3ccc(Cn4cnc5cccnc54)cc3s2)CCCCC1 [Example 75, 1-(((6-((3H-imidazo[4,5-b]pyridin-3-yl)methyl)benzo[d]thiazol-2-yl)amino)methyl)cyclohexanol]	1 to 5 µM	≤ 0.05 µM	≤ 0.1 µM	0.005 to 0.02 µM	C (C>0.02)	–	–	–	–	–	0.05 to 0.4 µM	–	–
O[C@@H]1Cc2ccccc2[C@H]1Nc1nc2ccc(Cn3cnc4cccnc43)cc2o1 [Example 57, (1R,2R)-1-((6-((3H-imidazo[4,5-b]pyridin-3-yl)methyl)benzo[d]oxazol-2-yl)amino)-2,3-dihydro-1H-inden-2-ol]	0.2 to 1 µM	≤ 0.05 µM	≤ 0.1 µM	≤ 0.005 µM	C (C>0.02)	–	–	–	–	–	0.05 to 0.4 µM	–	–
either (1S,2R)-2-((6-((3H-imidazo[4,5-b]pyridin-3-yl)methyl)benzo[d]thiazol-2-yl)amino)-1-methylcyclohexanol or (1R,2R)-2-((6-((3H-imidazo[4,5-b]pyridin-3-yl)methyl)benzo[d]thiazol-2-yl)amino)-1-methylcyclohexanol [Example 59]	1 to 5 µM	0.05 to 0.5 µM	0.1 to 0.5 µM	0.005 to 0.02 µM	C (C>0.02)	–	–	–	–	–	–	–	0.05 to 0.4 µM
CC(=NO)c1ccn2c(Cc3ccc4nc(N[C@@H]5CCCC[C@H]5O)sc4c3)cnc2c1 [Example 202, 1-(3-((2-(((1R,2R)-2-hydroxycyclohexyl)amino)benzo[d]thiazol-6-yl)methyl)imidazo[1,2-a]pyridin-7-yl)ethanone oxime]	–	–	–	–	–	1 to 5 µM	0.05 to 0.5 µM	0.1 to 0.5 µM	0.005 to 0.02 µM	A (A≤0.01)	–	0.05 to 0.4 µM	–
OC[C@@H](Nc1nc2ccc(Cn3cnc4cccnc43)cc2s1)C1CCCCC1 [Example 63, (S)-2-((6-((3H-imidazo[4,5-b]pyridin-3-yl)methyl)benzo[d]thiazol-2-yl)amino)-2-cyclohexylethanol]	≤ 0.2 µM	≤ 0.05 µM	≤ 0.1 µM	0.005 to 0.02 µM	C (C>0.02)	–	–	–	–	–	0.05 to 0.4 µM	–	–

More lines, main results first:

Kd [1]	Kd [2]	Kd [3]	Kd [4]	Kinase specificity S(10) [6, 8]	Kd ([1]; competition binding)	Kd ([2]; competition binding)	Kd ([3]; competition binding)	Kd ([4]; competition binding)	Kinase specificity S(10) [6, 10]	Compound	IC50 [5, 7]	IC50 [5, 9]	IC50 ([5]; 72 hours incubation, M-CSF 20 ng/mL)
–	–	–	–	–	> 5 µM	0.05 to 0.5 µM	> 2 µM	0.02 to 0.05 µM	A (A≤0.01)	Nc1nccn(Cc2ccc3nc(N[C@@H]4CCCC[C@H]4O)sc3c2)c1=O [Example 220, 3-amino-1-((2-(((1R,2R)-2-hydroxycyclohexyl)amino)benzo[d]thiazol-6-yl)methyl)pyrazin-2(1H)-one acetate salt]	–	> 1.5 µM	–
–	–	–	–	–	> 5 µM	0.5 to 2 µM	0.5 to 2 µM	0.02 to 0.05 µM	A (A≤0.01)	O=C1CCCCN1c1ccc2c(c1)ncn2Cc1ccc2nc(N[C@@H]3CCCC[C@H]3O)sc2c1 [Example 210, 1-(1-((2-(((1R,2R)-2-hydroxycyclohexyl)amino)benzo[d]thiazol-6-yl)methyl)-1H-benzo[d]imidazol-5-yl)piperidin-2-one]	–	> 1.5 µM	–
1 to 5 µM	> 2 µM	0.5 to 2 µM	0.005 to 0.02 µM	B (0.01<B≤0.02)	–	–	–	–	–	COc1cc2c(cc1C#N)ncn2Cc1ccc2nc(N[C@@H]3CCCC[C@H]3O)sc2c1 [Example 65, 1-((2-(((1R,2R)-2-hydroxycyclohexyl)amino)benzo[d]thiazol-6-yl)methyl)-6-methoxy-1H-benzo[d]imidazole-5-carbonitrile]	0.05 to 0.4 µM	–	–
> 5 µM	0.05 to 0.5 µM	0.5 to 2 µM	0.005 to 0.02 µM	A (A≤0.01)	–	–	–	–	–	O[C@@H]1CCCC[C@H]1Nc1nc2ccc(Cn3cnc4cncnc43)cc2s1 [Example 48, (1R,2R)-2-((6-((9H-purin-9-yl)methyl)benzo[d]thiazol-2-yl)amino)cyclohexanol]	0.05 to 0.4 µM	–	–
–	–	–	–	–	1 to 5 µM	≤ 0.05 µM	0.1 to 0.5 µM	≤ 0.005 µM	B (0.01<B≤0.02)	Fc1cnc2c(c1)ncn2Cc1ccc2nc(N[C@@H]3CCCC[C@H]3Cl)sc2c1 [Example 198, N-((1R,2R)-2-chlorocyclohexyl)-6-((6-fluoro-3H-imidazo[4,5-b]pyridin-3-yl)methyl)benzo[d]thiazol-2-amine]	–	0.05 to 0.4 µM	–
–	–	–	–	–	0.2 to 1 µM	0.5 to 2 µM	0.5 to 2 µM	0.02 to 0.05 µM	A (A≤0.01)	CS(=O)(=O)c1ccc2ncn(Cc3ccc4nc(N[C@@H]5CCCC[C@H]5O)sc4c3)c2n1 [Example 106, (1R,2R)-2-((6-((5-(methylsulfonyl)-3H-imidazo[4,5-b]pyridin-3-yl)methyl)benzo[d]thiazol-2-yl)amino)cyclohexanol]	–	> 1.5 µM	–
1 to 5 µM	0.05 to 0.5 µM	0.1 to 0.5 µM	0.005 to 0.02 µM	B (0.01<B≤0.02)	–	–	–	–	–	COc1cc2ncn(Cc3ccc4nc(N[C@@H]5CCCC[C@H]5O)sc4c3)c2cc1C#N [Example 53, 1-((2-(((1R,2R)-2-hydroxycyclohexyl)amino)benzo[d]thiazol-6-yl)methyl)-5-methoxy-1H-benzo[d]imidazole-6-carbonitrile]	≤ 0.05 µM	–	–
